Values after ≈ are worked out from the molar mass of the structure shown. Residues, ends and D or L forms follow the SMILES beside them. *: point of attachment. Decanoyl = CCCCCCCCCC(=O)*; Octanoyl = CCCCCCCC(=O)*
Tests used:
[1] = test system: S. aureus PCM1650; assay type: cell-based, Staphylococcus aureus; conditions: Mueller–Hinton broth, inoculum 5 × 10^5 CFU/mL, 24 h, 37 °C, absorbance 600 nm, triplicate
Description: (§1) The evaluation of the antimicrobial activity of the synthesized lipopeptides was performed against the following reference bacterial and fungal strains: Staphylococcus aureus PCM 1650, Staphylococcus aureus PCM 2054, Staphylococcus epidermidis PCM 521, Staphylococcus epidermidis PCM 2118, Escherichia coli PCM 2057, Candida albicans PCM 2566, Candida glabrata CCM 8270, Candida krusei CCM 8271, Candida parapsilosis CCM 8260.
(§2) For the initial cultivation of the bacteria and fungi, Luria-Bertani broth (LB, Biomaxima, Lublin, Poland) and Sabouraud Dextrose broth (SB, Biomaxima, Lublin, Poland) were used, respectively. Antimicrobial properties of the compounds were analyzed through the determination of MIC (minimal inhibitory concentrations) by my means of the serial micro-dilution technique according to the guidelines of Clinical & Laboratory Standard Institute (CLSI) established for aerobic bacteria and yeasts.
(§3) According to the procedures, Mueller–Hinton broth (MHB) was used as the working medium for the analysis of the bacterial susceptibility, while RPMI-1640 (with L-glutamine, without sodium bicarbonate) growth medium buffered with MOPS (morpholinepropanesulfonic acid) and supplemented with 2% glucose was used for the experiments with the fungi.
(§4) The experiments were carried out for 24 h at 37 and 35 °C for the bacteria and fungi, respectively. Then, the absorbance was measured at 600 nm for each well of the 96-well plate using a microplate reader (Sunrise TM, Tecan Trading AG, Männedorf, Switzerland). Based on the obtained results, the degree of inhibition of the growth of microorganisms (expressed in %) in the presence of the tested compounds range was determined with respect to the control probes. Inoculated wells without peptide were treated as a positive control (100% growth), and the wells containing working medium only were defined as a negative control (0% growth). All measurements were repeated in triplicate.

[2] = test system: S. aureus PCM2054; assay type: cell-based, Staphylococcus aureus; conditions: Mueller–Hinton broth, inoculum 5 × 10^5 CFU/mL, 24 h, 37 °C, absorbance 600 nm, triplicate
Description: as §1, §2, §3, §4

[3] = test system: S. epidermidis PCM2118; assay type: cell-based, Staphylococcus epidermidis; conditions: Mueller–Hinton broth, inoculum 5 × 10^5 CFU/mL, 24 h, 37 °C, absorbance 600 nm, triplicate
Description: as §1, §2, §3, §4

[4] = test system: S. epidermidis PCM521; assay type: cell-based, Staphylococcus epidermidis; conditions: Mueller–Hinton broth, inoculum 5 × 10^5 CFU/mL, 24 h, 37 °C, absorbance 600 nm, triplicate
Description: as §1, §2, §3, §4

[5] = test system: E. coli PCM2057; assay type: cell-based, Escherichia coli; conditions: Mueller–Hinton broth, inoculum 5 × 10^5 CFU/mL, 24 h, 37 °C, absorbance 600 nm, triplicate
Description: as §1, §2, §3, §4

[6] = test system: C. albicans PCM2566; assay type: cell-based, Candida albicans; conditions: RPMI-1640 with MOPS and 2% glucose, inoculum 5 × 10^3 CFU/mL, 24 h, 35 °C, absorbance 600 nm, triplicate
Description: as §1, §2, §3, §4

[7] = test system: C. glabrata CCM8270; assay type: cell-based, Candida glabrata; conditions: RPMI-1640 with MOPS and 2% glucose, inoculum 5 × 10^3 CFU/mL, 24 h, 35 °C, absorbance 600 nm, triplicate
Description: as §1, §2, §3, §4

[8] = test system: C. krusei CCM8271; assay type: cell-based, Candida krusei; conditions: RPMI-1640 with MOPS and 2% glucose, inoculum 5 × 10^3 CFU/mL, 24 h, 35 °C, absorbance 600 nm, triplicate
Description: as §1, §2, §3, §4

[9] = test system: C. parapsilosis CCM 8260; assay type: cell-based, Candida parapsilosis; conditions: RPMI-1640 with MOPS and 2% glucose, inoculum 5 × 10^3 CFU/mL, 24 h, 35 °C, absorbance 600 nm, triplicate
Description: as §1, §2, §3, §4

[10] = test system: human breast cancer cells (MCF-7 line, ATCC); experiment: MTT cytotoxicity assay; assay type: cell-based; conditions: IC50 against HaCaT divided by IC50 for MCF-7
Description: (§5) The prepared plates were further incubated for 48 h. […] The control cell viability was assumed to be 100%. Three independent experiments were carried out in three repetitions.

[11] = test system: human prostate cancer cells (PC3 line, ATCC); experiment: MTT cytotoxicity assay; assay type: cell-based; conditions: IC50 against HaCaT divided by IC50 for PC3
Description: as §5

[12] = test system: POPC liposomes; experiment: CD, α-helix content in POPC liposomes; assay type: physicochemical; conditions: 25 °C, peptide 0.15 mg/mL, 1.3 mM POPC; for α-Helix percentage, POPC: from ellipticity at 222 nm
Description: (§6) Large unilamellar vesicles (LUV) were obtained by extrusion of MLV liposomes through polycarbonate membrane filters with a pore diameter of 100 nm (Whatman International Ltd., Kent, UK) using a mini-extruder (Avanti Polar Lipids, Inc., Alabaster, AL, USA).
(§7) CD experiments were carried out at 25 °C using a Jasco J-815 spectropolarimeter in the wavelength range 185–260 nm. The concentration of the lipopeptides was 0.15 mg/mL. The CD spectra were recorded in water, PBS (pH 7.4), 1.3 mM POPC and 1.3 mM POPG. The results are plotted as the mean molar ellipticity per one amino acid residue (MRME, deg cm^2 dmol^−1) as a function of the wavelength (nm). Additionally, we performed a conformational analysis of the selected compounds in the presence of S. aureus cells. […] The mixtures were then incubated for 2 h before recording the CD spectra.
(§8) The percentage of the α-helical structure was calculated based on the mean molar ellipticity at 222 nm using the formula: fH=θ222−3000/−36000−3000·100% where θ222 corresponds to the value of the mean molar ellipticity at a wavelength of 222 nm.

[13] = test system: POPG liposomes; experiment: CD, α-helix content in POPG liposomes; assay type: physicochemical; conditions: 25 °C, peptide 0.15 mg/mL, 1.3 mM POPG; for α-Helix percentage, POPG: from ellipticity at 222 nm
Description: as §6, §7, §8

[14] = molecular target: POPG LUVs; experiment: Isothermal titration calorimetry, binding to POPG LUVs; conditions: ITC, 25 °C
Description: as §6
The thermodynamic parameters of the interactions of the lipopeptides with POPG and POPC liposomes were determined by isothermal titration calorimetry (ITC). Measurements were performed at 25 °C using an AutoITC microcalorimeter (MicroCal Inc., Northampton, MA, USA) with a 1.4491 mL sample and reference cells. The experiment consisted in the titration of a buffered peptide solution with a concentration of 0.05 and/or 0.07 mM with a buffered solution containing POPG or POPC LUVs with a lipid concentration of 1.3 and 1.8 mM (10.02 µL; 29 injections, 2 µL for the first injection only), as it was described previously. The result of the titration was a thermogram showing a series of peaks corresponding to the titration steps. A titration curve was obtained after integration of the peak areas. The obtained isotherms were fitted to the “one set of sites” or “two sets of sites” models available in the ORIGIN 7.0 (MicroCal Inc., Northampton, MA, USA), which made it possible to determine the enthalpy (ΔH), the binding constant (KITC) and the stoichiometry (N) of the interactions between the lipopeptide and the lipids. The following formula was used to calculate the entropy change (ΔS) and the Gibbs free energy (ΔG): ΔG=−RTln(55.5KITC)=ΔH−TΔS where: factor 55.5 is the molar concentration of water, R is the gas constant (1.986 cal·mol^−1·K^−1), and T is the absolute temperature.

[15] = molecular target: POPC LUVs; experiment: Isothermal titration calorimetry, binding to POPC LUVs; conditions: ITC, 25 °C, 1.3 mM POPC to 0.05 mM C10-LL-I
Description: as §6
The thermodynamic parameters of the interactions of the lipopeptides with POPG and POPC liposomes were determined by isothermal titration calorimetry (ITC). Measurements were performed at 25 °C using an AutoITC microcalorimeter (MicroCal Inc., Northampton, MA, USA) with a 1.4491 mL sample and reference cells. The experiment consisted in the titration of a buffered peptide solution with a concentration of 0.05 and/or 0.07 mM with a buffered solution containing POPG or POPC LUVs with a lipid concentration of 1.3 and 1.8 mM (10.02 µL; 29 injections, 2 µL for the first injection only), as it was described previously. The result of the titration was a thermogram showing a series of peaks corresponding to the titration steps. A titration curve was obtained after integration of the peak areas. The obtained isotherms were fitted to the “one set of sites” or “two sets of sites” models available in the ORIGIN 7.0 (MicroCal Inc., Northampton, MA, USA), which made it possible to determine the enthalpy (ΔH), the binding constant (KITC) and the stoichiometry (N) of the interactions between the lipopeptide and the lipids. […]

[16] = Dynamic light scattering of lipopeptide assemblies; assay type: physicochemical; conditions: DLS, sonicated 10 min, incubated 1 h, 90° side scatter
Description: The hydrodynamic diameters of the lipopeptide nanoaggregates were examined by the Litesizer 500 (Anton-Paar GmbH, Graz, Austria) at 25 °C. The measurements were carried out at various lipopeptide concentrations ranging from 0.5 to 2 mM and from 0.25 to 2 mM, in water and PBS, respectively. Two-fold serial dilutions were used to obtain the sequential concentrations. Each sample was sonicated for 10 min followed by incubation for 1 h at 25 °C and transferred to the polystyrene cuvette. The detector was positioned at a side scatter position (90°). The analysis of the obtained results and report generation was performed with KalliopeTM software (Anton-Paar GmbH, Graz, Austria).

[17] = test system: S. aureus cells; experiment: TEM of S. aureus cells treated with lipopeptide; assay type: cell-based, Staphylococcus aureus; conditions: C8-LL-I at 25 µg/mL, 5 × 10^5 CFU/mL, incubated overnight at 37 °C
Description: The cells were centrifuged (8000 rpm, 15 min) and resuspended in fresh media to obtain a high-density cell suspension (5 × 10^5 CFU/mL). […] Afterward, the cells were centrifuged (8000 rpm, 15 min) and washed three times with PBS. The bacterial cells were fixed with 2.5% glutaraldehyde buffered at pH 6.5 with 0.1 M sodium cacodylate (Polysciences, Warrington, PA, USA) for 6 h at room temperature, as described earlier [52]. Additional fixation was performed with a 1% osmium tetroxide solution (Polysciences, Warrington, PA, USA) for 2 h at 4 °C. The cells were centrifuged and resuspended in 0.1 M cacodylate buffer, centrifuged again and dehydrated with ethanol. The bacteria were embedded in Epon 812 resin (Sigma-Aldrich, Darmstadt, Germany) at room temperature. A Leica UC7 ultramicrotome (Wetzlar, Germany) was used to obtain ultra-thin sections (55 nm). As contrasting agents, lead citrate and uranyl acetate were used. Cells were visualized using a Tecnai Spirit BioTWIN (EFI, Hillsboro, OR, USA) microscope at 120 kV.

[18] = 0.05 or 0.07 mM peptide titrated with 1.3 or 1.8 mM POPG LUVs, one set of sites model (C10-LL-I: two sets of sites, first line)

SMILES	MIC, S. aureus PCM1650 [1] [µg/mL]	MIC, S. aureus PCM2054 [2] [µg/mL]	MIC, S. epidermidis PCM2118 [3] [µg/mL]	MIC, S. epidermidis PCM521 [4] [µg/mL]	MIC, E. coli PCM2057 [5] [µg/mL]	MIC, C. albicans PCM2566 [6] [µg/mL]	MIC, C. glabrata CCM8270 [7] [µg/mL]	MIC, C. krusei CCM8271 [8] [µg/mL]	MIC, C. parapsilosis CCM 8260 [9] [µg/mL]	SI MCF-7 [10]	SI PC3 [11]	θ222/θ208, POPC [12]	α-Helix percentage, POPC [12] [%]	θ222/θ208, POPG [13]	α-Helix percentage, POPG [13] [%]	pKITC, POPG [14, 18]	other results
CCCCCCCCCC(=O)N[C@H](C(=O)N[C@@H](CC(N)=O)C(=O)N[C@@H](Cc1c[nH]c2ccccc12)C(=O)N[C@@H](CCCCN)C(=O)N[C@@H](CCCCN)C(=O)N[C@H](C(=O)N[C@@H](CC(C)C)C(=O)NCC(=O)N[C@@H](CCCCN)C(=O)N[C@H](C(=O)N[C@H](C(=O)N[C@@H](CCCCN)C(=O)N[C@H](C(=O)N[C@@H](C)C(=O)N[C@@H](CCCCN)C(N)=O)C(C)C)[C@@H](C)CC)[C@@H](C)CC)C(C)C)C(C)C [C10-LL-I] (Decanoyl-VNWKKVLGKIIKVAK-NH2)	12.5 (≈ 6.66 µM)	12.5 (≈ 6.66 µM)	6.25 (≈ 3.33 µM)	12.5 (≈ 6.66 µM)	25 (≈ 13.3 µM)	>50	25 (≈ 13.3 µM)	12.5 (≈ 6.66 µM)	6.25 (≈ 3.33 µM)	1.34	0.84	0.88	40	0.98	19	6.02 ± 1.09	pKITC, POPG ([14]; two sets of sites model, second line): 4.69 ± 0.54; pKITC, POPC [15]: 4.42 ± 0.24
CCCCCCCC(=O)N[C@H](C(=O)N[C@@H](CC(N)=O)C(=O)N[C@@H](Cc1c[nH]c2ccccc12)C(=O)N[C@@H](CCCCN)C(=O)N[C@@H](CCCCN)C(=O)N[C@H](C(=O)N[C@@H](CC(C)C)C(=O)NCC(=O)N[C@@H](CCCCN)C(=O)N[C@H](C(=O)N[C@H](C(=O)N[C@@H](CCCCN)C(=O)N[C@H](C(=O)N[C@@H](C)C(=O)N[C@@H](CCCCN)C(N)=O)C(C)C)[C@@H](C)CC)[C@@H](C)CC)C(C)C)C(C)C [C8-LL-I] (Octanoyl-VNWKKVLGKIIKVAK-NH2)	12.5 (≈ 6.76 µM)	12.5 (≈ 6.76 µM)	6.25 (≈ 3.38 µM)	6.25 (≈ 3.38 µM)	25 (≈ 13.5 µM)	>50	25 (≈ 13.5 µM)	12.5 (≈ 6.76 µM)	12.5 (≈ 6.76 µM)	1.42	0.76	0.85	48	0.90	27	3.98 ± 0.06	hydrodynamic diameter, peak of highest scattering intensity ([16]; 0.25 mM in PBS pH 7.4, 25 °C): 3360 ± 165 nm; hydrodynamic diameter, peak of highest scattering intensity ([16]; 0.5 mM salt-free aqueous solution, 25 °C): 404 ± 37 nm; hydrodynamic diameter ([16]; 2 mM in PBS pH 7.4, 25 °C): 3844 ± 1031 nm; effect on S. aureus cells (TEM) [17]: induced thinning of the membrane and its disintegration

Source: publication PMC9959048, “Lipidation of Naturally Occurring α-Helical Antimicrobial Peptides as a Promising Strategy for Drug Design” (International Journal of Molecular Sciences, 2023)
